The values that follow come from patent US10934310B2, “Inhibitors of Bruton's tyrosine kinase and method of their use” (JANSSEN PHARMACEUTICA NV, priority 2015, dated 2021).

Sequence of unphosphorylated-BTK kinase domain (UP-BTK), GST-tagged human BTK (389-659aa) (Q06187 389-659): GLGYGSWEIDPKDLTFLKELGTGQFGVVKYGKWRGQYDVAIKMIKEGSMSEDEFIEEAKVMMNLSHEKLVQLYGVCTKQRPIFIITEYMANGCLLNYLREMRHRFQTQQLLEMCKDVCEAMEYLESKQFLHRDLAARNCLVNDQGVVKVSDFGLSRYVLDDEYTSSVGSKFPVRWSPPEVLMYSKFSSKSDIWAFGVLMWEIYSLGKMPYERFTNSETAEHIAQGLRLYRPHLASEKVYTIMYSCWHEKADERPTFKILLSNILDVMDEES

In one test the target is unphosphorylated-BTK kinase domain (UP-BTK), GST-tagged human BTK (389-659aa) (Homo sapiens (Human), UniProt Q06187). The test is described as follows: BTK Kinase Lanthascreen Binding Assay. To be noted: Lanthascreen binding, 60 minutes incubation; pIC50 = negative log of the IC50 in molar. The method, then:
BTK Kinase Lanthascreen Binding Assay:
A BTK kinase lanthascreen binding assay monitors compound binding to unphosphorylated-BTK kinase domain (UP-BTK), by competing with a fluorescent labeled tracer. […] Data were analyzed using Xlfit™ version 5.3 from ID Business Solutions (Guildford), Microsoft Excel add-in. pIC50 refers to the negative log of the IC50 in molar.
(In general: Time-resolved FRET reads energy transfer from a long-lived donor to a nearby acceptor.)
In the case of `CC(=O)N[C@H]1CCC[C@@H](NC(=O)c2sc3nccc4c3c2NC(=O)N4c2cnc(Oc3ccccc3)cc2C)C1` (single isomer, unassigned) [Example 360, N-((1R,3S)-3-Acetamidocyclohexyl)-5-(*S)-(4-methyl-6-phenoxypyridin-3-yl)-4-oxo-4,5-dihydro-3H-1-thia-3,5,8-triazaacenaphthylene-2-carboxamide], the “BTK_I_binding pIC50” value amounted to 6.26. The same measure, in the same setting: the same measure for `CCC(=O)N[C@H]1CC[C@@H](NC(=O)c2sc3nccc4c3c2NC(=O)N4c2cnc(Oc3ccccc3)cc2C)C1` (single isomer, unassigned) [Example 361, 5-(*S)-(4Methyl-6-phenoxypyridin-3-yl)-4-oxo-N-((1R,3S)-3-propionamidocyclopentyl)-4,5-dihydro-3H-1-thia-3,5,8-triazaacenaphthylene-2-carboxamide]: 7.94.

Take `C=CC(=O)N[C@H]1CCC[C@@H](NC(=O)c2sc3nccc4c3c2NC(=O)N4c2cnc(Oc3ccccc3)cc2C)C1` (single isomer, unassigned) [Example 363, N-((1R,3S)-3-Acrylamidocyclohexyl)-5-(*S)-(4-methyl-6-phenoxypyridin-3-yl)-4-oxo-4,5-dihydro-3H-1-thia-3,5,8-triazaacenaphthylene-2-carboxamide]: the “BTK_I_binding pIC50” value amounted to 6.31.

For `C=CC(=O)N[C@H]1CC[C@@H](NC(=O)c2sc3nccc4c3c2NC(=O)N4c2cnc(OCC(C)C)cc2C)C1` (single isomer, unassigned) [Example 365], the “BTK_I_binding pIC50” value came to 7.93. On the same count and under the same terms, the same measure for `C=CC(=O)N[C@H]1CC[C@@H](NC(=O)c2sc3nccc4c3c2NC(=O)N4c2cnc(OC3CCCC3)cc2C)C1` (single isomer, unassigned) [Example 366, N-((1R,3S)-3-Acrylamidocyclopentyl)-5-(*S)-(6-(cyclopentyloxy)-4-methylpyridin-3-yl)-4-oxo-4,5-dihydro-3H-1-thia-3,5,8-triazaacenaphthylene-2-carboxamide]: 8.07; for `C=CC(=O)N[C@H]1CCC[C@H]1NC(=O)c1sc2nccc3c2c1NC(=O)N3c1cnc(OC2CCCC2)cc1C` (single isomer, unassigned) [Example 371, N-((1R,2S)-2-Acrylamidocyclopentyl)-5-(*S)-(6-(cyclopentyloxy)-4-methylpyridin-3-yl)-4-oxo-4,5-dihydro-3H-1-thia-3,5,8-triazaacenaphthylene-2-carboxamide]: 8.23. Still for that read-out and setting: as for `C=CC(=O)N[C@H]1CCC[C@H]1NC(=O)c1sc2nccc3c2c1NC(=O)N3c1cnc(OCC(C)C)cc1C` (single isomer, unassigned) [Example 373, N-((1R,2S)-2-Acrylamidocyclopentyl)-5-(*S)-(6-isobutoxy-4-methylpyridin-3-yl)-4-oxo-4,5-dihydro-3H-1-thia-3,5,8-triazaacenaphthylene-2-carboxamide], the figure is 8.25; as for `Cc1cc(OC2CCCC2)ncc1N1C(=O)Nc2c(C(=O)N[C@@H]3CCC[C@@H]3N)sc3nccc1c23` (single isomer, unassigned) [Example 374, N-((1R,2S)-2-Aminocyclopentyl)-5-(*S)-(6-(cyclopentyloxy)-4-methylpyridin-3-yl)-4-oxo-4,5-dihydro-3H-1-thia-3,5,8-triazaacenaphthylene-2-carboxamide], 6.82.

For the compound `Cc1cc(Oc2ccccc2)ncc1N1C(=O)Nc2c(C(=O)N[C@@H]3CCCC[C@@H]3N)sc3nccc1c23` (single isomer, unassigned) [Example 375, N-((1R,2S)-2-Aminocyclohexyl)-5-(*S)-(4-methyl-6-phenoxypyridin-3-yl)-4-oxo-4,5-dihydro-3H-1-thia-3,5,8-triazaacenaphthylene-2-carboxamide], the “BTK_I_binding pIC50” value was 6.92. Take `CC(=O)N[C@H]1CCCC[C@H]1NC(=O)c1sc2nccc3c2c1NC(=O)N3c1cnc(Oc2ccccc2)cc1C` (single isomer, unassigned) [Example 377, N-((1R,2S)-2-Acetamidocyclohexyl)-5-(*S)-(4-methyl-6-phenoxypyridin-3-yl)-4-oxo-4,5-dihydro-3H-1-thia-3,5,8-triazaacenaphthylene-2-carboxamide]: the “BTK_I_binding pIC50” value is reported as 6.83. On the same count and under the same terms, as for `CC(=O)N[C@H]1CCC[C@H]1NC(=O)c1sc2nccc3c2c1NC(=O)N3c1cnc(Oc2ccccc2)cc1C` (single isomer, unassigned) [Example 378, N-((1R,2S)-2-Acetamidocyclopentyl)-5-(*S)-(4-methyl-6-phenoxypyridin-3-yl)-4-oxo-4,5-dihydro-3H-1-thia-3,5,8-triazaacenaphthylene-2-carboxamide], the figure is 6.39; as for `CCC(=O)N[C@H]1CCCC[C@H]1NC(=O)c1sc2nccc3c2c1NC(=O)N3c1ccc(Oc2ccccc2)cc1C` (single isomer, unassigned) [Example 380, 5-(*S)-(2-Methyl-4-phenoxyphenyl)-4-oxo-N-((1R,2S)-2-propionamidocyclohexyl)-4,5-dihydro-3H-1-thia-3,5,8-triazaacenaphthylene-2-carboxamide], 7.20; as for `C=CC(=O)N[C@@H]1CCC[C@H]1NC(=O)c1sc2nccc3c2c1NC(=O)N3c1cnc(CC(C)C)cc1C` (single isomer, unassigned) [Example 382, N-((1R,2R)-2-Acrylamidocyclopentyl)-5-(*S)-(6-isobutyl-4-methylpyridin-3-yl)-4-oxo-4,5-dihydro-3H-1-thia-3,5,8-triazaacenaphthylene-2-carboxamide], 7.68. The same measure, in the same setting: the same measure for `CCC(=O)N[C@H]1CCC[C@@H](NC(=O)c2sc3nccc4c3c2NC(=O)N4c2cnc(Oc3ccccc3)cc2C)C1` (single isomer, unassigned) [Example 385, 5-(*S)-(4-Methyl-6-phenoxypyridin-3-yl)-4-oxo-N-((1R,3S)-3-propionamidocyclohexyl)-4,5-dihydro-3H-1-thia-3,5,8-triazaacenaphthylene-2-carboxamide]: 7.98; for `CCC(=O)N[C@@H]1CC[C@@H](NC(=O)c2sc3nccc4c3c2NC(=O)N4c2cnc(Oc3ccccc3)cc2C)C1` (single isomer, unassigned) [Example 388, 5-(*S)-(4-Methyl-6-phenoxypyridin-3-yl)-4-oxo-N-((1R,3R)-3-propionamidocyclopentyl)-4,5-dihydro-3H-1-thia-3,5,8-triazaacenaphthylene-2-carboxamide]: 7.64.

As to `CC(=O)N[C@H]1CC[C@@H](NC(=O)c2sc3nccc4c3c2NC(=O)N4c2cnc(Oc3ccccc3)cc2C)CC1` (single isomer, unassigned) [Example 389, N-((1S,4S)-4-Acetamidocyclohexyl)-5-(*S)-(4-methyl-6-phenoxypyridin-3-yl)-4-oxo-4,5-dihydro-3H-1-thia-3,5,8-triazaacenaphthylene-2-carboxamide], the “BTK_I_binding pIC50” value came to 7.30. The same measure, in the same setting: as for `CCC(=O)N[C@@H]1CC[C@H](NC(=O)c2sc3nccc4c3c2NC(=O)N4c2cnc(Oc3ccccc3)cc2C)C1` (single isomer, unassigned) [Example 390, 5-(*S)-(4-Methyl-6-phenoxypyridin-3-yl)-4-oxo-N-((1S,3R)-3-propionamidocyclopentyl)-4,5-dihydro-3H-1-thia-3,5,8-triazaacenaphthylene-2-carboxamide], the figure is 8.04; as for `CC(=O)N[C@@H]1CC[C@H](NC(=O)c2sc3nccc4c3c2NC(=O)N4c2cnc(Oc3ccccc3)cc2C)C1` (single isomer, unassigned) [Example 391, N-((1S,3R)-3-Acetamidocyclopentyl)-5-(*S)-(4-methyl-6-phenoxypyridin-3-yl)-4-oxo-4,5-dihydro-3H-1-thia-3,5,8-triazaacenaphthylene-2-carboxamide], 7.86; as for `CC(=O)N[C@@H]1CC[C@@H](NC(=O)c2sc3nccc4c3c2NC(=O)N4c2cnc(Oc3ccccc3)cc2C)C1` (single isomer, unassigned) [Example 392, N-((1R,3R)-3-Acetamidocyclopentyl)-5-(*S)-(4-methyl-6-phenoxypyridin-3-yl)-4-oxo-4,5-dihydro-3H-1-thia-3,5,8-triazaacenaphthylene-2-carboxamide], 7.34. On the same count and under the same terms, the same measure for `Cc1cc(OC2CCCC2)ncc1N1C(=O)Nc2c(C(=O)N[C@@H]3CC[C@H](N)C3)sc3nccc1c23` (single isomer, unassigned) [Example 394, N-((1R,3S)-3-Aminocyclopentyl)-5-(*S)-(6-(cyclopentyloxy)-4-methylpyridin-3-yl)-4-oxo-4,5-dihydro-3H-1-thia-3,5,8-triazaacenaphthylene-2-carboxamide]: 6.70; for `CC(=O)N[C@H]1CC[C@H](NC(=O)c2sc3nccc4c3c2NC(=O)N4c2cnc(Oc3ccccc3)cc2C)C1` (single isomer, unassigned) [Example 395, N-((1S,3S)-3-Acetamidocyclopentyl)-5-(*S)-(4-methyl-6-phenoxypyridin-3-yl)-4-oxo-4,5-dihydro-3H-1-thia-3,5,8-triazaacenaphthylene-2-carboxamide]: 6.66.

The same test, now with this note: read-out: BTK_I_binding pIC50 (converted).
Take `CC(=O)N[C@@H]1CCCC[C@H]1NC(=O)c1sc2nccc3c2c1NC(=O)N3c1ccc(Oc2ccccc2)nc1C` (single isomer, unassigned) [Example 362, N-((1R,2R)-2-Acetamidocyclohexyl)-5-(*S)-(2-methyl-6-phenoxypyridin-3-yl)-4-oxo-4,5-dihydro-3H-1-thia-3,5,8-triazaacenaphthylene-2-carboxamide]: the IC50 is more than 1000 nM.

As to `CCC(=O)N[C@H]1CCCC[C@H]1NC(=O)c1sc2nccc3c2c1NC(=O)N3c1ccc(Oc2ccccc2)nc1C` (single isomer, unassigned) [Example 364, 5-(*S)-(2-Methyl-6-phenoxypyridin-3-yl)-4-oxo-N-((1R,2R)-2-propionamidocyclohexyl)-4,5-dihydro-3H-1-thia-3,5,8-triazaacenaphthylene-2-carboxamide], the IC50 was more than 1000 nM.
